In patent EP2459560B1, “RING-ANNULATED DIHYDROPYRROLO[2,L-A]ISOQUINOLINES” (Merck Sharp & Dohme B.V., priority 2009, dated 2011):

Biological target: T1, human FSH receptor (Homo sapiens, UniProt P23945)
T1 construct: expressed in transfected cells; host or cells: Chinese Hamster Ovary (CHO) cells, stably transfected; cotransfected with CRE/promoter-firefly luciferase reporter
T1 sequence (P23945 18-695): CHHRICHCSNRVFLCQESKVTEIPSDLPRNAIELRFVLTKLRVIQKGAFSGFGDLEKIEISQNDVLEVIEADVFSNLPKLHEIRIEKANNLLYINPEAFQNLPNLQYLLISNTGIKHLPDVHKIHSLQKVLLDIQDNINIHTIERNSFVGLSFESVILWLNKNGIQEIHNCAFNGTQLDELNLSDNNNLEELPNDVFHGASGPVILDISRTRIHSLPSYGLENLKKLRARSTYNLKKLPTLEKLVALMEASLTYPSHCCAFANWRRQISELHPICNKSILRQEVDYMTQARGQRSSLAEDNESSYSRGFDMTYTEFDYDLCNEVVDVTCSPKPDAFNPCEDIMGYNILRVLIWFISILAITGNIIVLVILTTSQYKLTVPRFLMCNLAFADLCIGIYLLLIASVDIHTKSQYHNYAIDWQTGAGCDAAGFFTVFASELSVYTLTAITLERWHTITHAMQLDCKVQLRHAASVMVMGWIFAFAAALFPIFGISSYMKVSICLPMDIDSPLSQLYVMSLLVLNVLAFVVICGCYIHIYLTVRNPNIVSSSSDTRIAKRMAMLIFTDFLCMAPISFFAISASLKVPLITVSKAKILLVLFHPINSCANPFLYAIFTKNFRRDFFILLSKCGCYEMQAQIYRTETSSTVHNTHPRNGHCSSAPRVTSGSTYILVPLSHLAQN
Experiment: Agonistic activity at the human FSH receptor expressed in CHO cells (CRE-luciferase reporter)
Assay type: cell-based
Details: CHO cells stably transfected with the human FSH receptor and a CRE/luciferase reporter, 4 hours of incubation, pEC50 is -logEC50; for EC50: read-out: hFSHRago (CHO luc) pEC50 (converted)
Procedure: For the determination a software program such as MathIQ (version 2.0, ID Business Solutions Limited) can be used.
Agonistic activity of compounds at the human FSH receptor expressed in CHO cells
Agonistic activity of the compounds at the human FSH receptor was determined in Chinese Hamster Ovary (CHO) cells stably transfected with the human FSH receptor and cotransfected with a cAMP responsive element (CRE)/promotor directing the expression of a firefly luciferase reporter gene. […] The final concentration of DMSO was 1%. After 4 hours of incubation, plates were allowed to adjust to room temperature for 1 hour. Then, Luclite (PerkinElmer) solution was added to the wells and cells were allowed to lyse for at least 1 hour at room temperature. Subsequently, luciferase activity was measured in a luminescence counter. The signal is expressed as counts per second (cps).

Compound: 9-tert-butyl-3-methoxy-2-pyridin-3-yl-14-(1,3-thiazol-5-yl)-5,6,10,11,12,13-hexahydroazocino[4',3':4,5]pyrrolo[2,1-a]isoquinolin-8(9H)-one [11j]
- hFSHRago (CHO luc) pEC50: 8.51

Compound: COc1cc2c(cc1-c1cnn(C)c1)-c1c(-c3cccs3)c3c(n1CC2)C(=O)N(C(C)(C)C)CCC3 [4h]
- EC50: 64.6 nM

Compound: COc1cc2c(cc1-c1cnccn1)-c1c(-c3cccs3)c3c(n1CC2)C(=O)N(C(C)(C)C)CCC3 [4i, 9-tert-butyl-2-(pyrazin-2-yl)-3-methoxy-13-(2-thienyl)-5,6,9,10,11,12-hexahydro-8H-azepino[4',3':4,5]pyrrolo[2,1-a]isoquinolin-8-one]
- EC50: 13.8 nM

Compound: COc1cc2c(cc1-c1cccnc1)-c1c(-c3cccs3)c3c(n1CC2)C(=O)N(C(C)(C)C)CCSC3 [9k, 9-tert-butyl-3-methoxy-2-pyridin-3-yl-14-(2-thienyl)-5,6,10,11,13,13a-hexahydro-7aH-[1,4]thiazocino[7',6':4,5]pyrrolo[2,1-a]isoquinolin-8(9H)-one]
- EC50: 0.316 nM

Compound: COc1cc2c(cc1[C@@H](O)[C@H](O)CO)-c1c(-c3cccs3)c3c(n1CC2)C(=O)N(C(C)(C)C)CCCC3 [21i]
- EC50: 5.25 nM
